Patent US8685952B2, “Method for the treatment of diabetes” (KOWA Co., Ltd., priority 2006, dated 2014)
Where a name gives a salt, the structure may show the parent alone.

Tests used:
KKAy mice [1] = experiment: oral glucose tolerance test in KKAy mice after 21 days of oral administration; format: in vivo; conditions: male KKAy mice; oral once a day for 21 days; pitavastatin 10 mg/kg, pravastatin 50 mg/kg, enalapril maleate 1 mg/kg; glucose 2 g/kg oral after 18 h fasting; compared with control group (combination also vs single administration groups, P<0.05)
Experimental: Male KKAy mice (age: 10 weeks, Nippon Cler Co., Ltd.) were provided. Throughout the duration of the experiment, the mice were housed in a cage with a controlled light/dark cycle (duration of light period with a room light: 7:00 a.m. to 7:00 p.m.) at a temperature of 23±3° C. and a humidity of 55±15% and were allowed to freely take a solid chow (CE-2; Nippon Cler Co., Ltd.) and tap water. Pitavastatin and/or enalapril maleate were suspended in a 0.5-mass % aqueous solution of carboxymethyl cellulose (Iwai Kagaku Co., Ltd.) so that the pitavastatin content and the enalapril maleate content were adjusted to 1 mg/mL and 0.1 mg/mL, respectively. Since pitavastatin has a water content of 9.43%, pitavastatin was weighed in an amount of 1.1 times by mass the target dose for compensation. The suspension was refrigerated (4° C.) in a light-tight bottle. The suspensions were prepared every 7 days. Twenty four KKAy mice were randomly divided into the following four groups (six mice per group): a control group, a pitavastatin alone (10 mg/kg) group, an enalapril maleate alone (1 mg/kg) group, and a pitavastatin (10 mg/kg) and enalapril maleate (1 mg/kg) combined use group. Each of pitavastatin and enalapril maleate was orally administered once a day at a dose of 10 mL/kg for 21 days, and a 0.5 mass % aqueous sodium carboxymethyl cellulose solution (10 mL/kg) was orally administered to the control group. […] Immediately after collection, blood glucose level was determined by means of a […] reader (GR-101, product of Terumo Co., Ltd.). After determination of the initial blood glucose level, an aqueous glucose solution was orally administered to each mouse (2 g/10 mL/kg), and blood glucose level was determined in a similar manner at 15, 30, 60, and 120 minutes after administration of glucose. In each group, AUC of blood glucose level was calculated. The differences between the control group and the drug-administered groups were analyzed on the basis of Dunnett's multiple comparison test, preceded by Bartlett's analysis of variance. […]

KKAy mice [2] = conditions: type II diabetes model, reported in the literature; cited from earlier work

| Structure (SMILES) | AUC of blood glucose level (to glucose tolerance hour 2) (KKAy mice [1]) | effect on impaired glucose tolerance / insulin resistance (KKAy mice [2]) |
| --- | --- | --- |
| CCOC(=O)[C@H](CCc1ccccc1)N[C@@H](C)C(=O)N1CCC[C@H]1C(=O)O [enalapril maleate] | tended to be reduced | – |
| O=C([O-])C[C@H](O)C[C@H](O)/C=C/c1c(C2CC2)nc2ccccc2c1-c1ccc(F)cc1.O=C([O-])C[C@H](O)C[C@H](O)/C=C/c1c(C2CC2)nc2ccccc2c1-c1ccc(F)cc1.[Ca+2] [pitavastatin, pitavastatin calcium] | tended to be reduced | effect of improving impaired glucose tolerance |
| CC[C@H](C)C(=O)O[C@H]1C[C@H](O)C=C2C=C[C@H](C)[C@H](CC[C@@H](O)C[C@@H](O)CC(=O)O)[C@H]21 [pravastatin, pravastatin sodium] | tended to be reduced | effect of reversing impaired glucose tolerance |
| CCOC(=O)[C@H](CCc1ccccc1)N[C@H]1CS[C@H](c2cccs2)CN(CC(=O)O)C1=O [temocapril] | – | reduction of insulin resistance |
